# Measurements taken from patent US6733777B2, “Cationic reagents of transfection” (Qiagen GmbH, priority 1996, dated 2004).
# Like-named read-outs stand apart in the source and are kept apart here. Marks after values point to notes of the source that are not given here.
# Columns and labels:
# HeLaS3 cells [1] = assay: Transfection of HeLaS3 cells with pCMVβ, β-Gal activity assay (cytofectins having three ammonium groups); type: cell-based; conditions: liposome with DOPE, 0.5 μg pCMVβ
# Protocol: (§1) N,N′,N″-trialkyl-N,N,N′,N″,N″-pentamethyl-bis-(2-ammonioethyl)ammoniumbromide Liposomes comprising compound (3) [synthesis according to Example 1B] and DOPE were prepared at 60° C., using DOPE without sonication.
# (§2) Cells were incubated for 48 hours at 37° C., 5% CO2 and then lysed.
# (§3) The results below (Table 7) indicate the optimal transfection efficiency of the reporter plasmid pCMVβ using the above-mentioned liposomes as a percentage of the highest transfection efficiency obtained by Lipofectamine. R indicates the number of carbons in the alkyl chain. Concentration of DOPE in each liposome may be calculated by multiply the X(DOPE) value by […].
# COS7 cells = assay: Transfection of COS7 cells with pCMVβ, β-Gal activity assay (cytofectins having three ammonium groups); type: cell-based; conditions: liposome with DOPE, 0.5 μg pCMVβ
# Protocol: as §1, §2, §3
# HeLaS3 cells [2] = assay: Transfection of HeLaS3 cells with pCMVβ, β-Gal activity assay (variation of counter ion); type: cell-based; conditions: 10-2-10 cytofectin with the given counter ion; for Results (%) (optimal transfection efficiency as percentage of the highest efficiency obtained by Lipofectamine): liposome with DOPE, 0.5 μg pCMVβ; for ranking of transfection efficiency among the counter ions (in words) / transfection efficiency compared with Lipofectamine (in words): liposomes with DOPE
# Protocol: Liposomes were used to transfect HeLaS3 cells in vitro with the reporter plasmid pCMVβ (Clontech). […] Cells were incubated for 48 hours at 37° C., 5% CO2 and then lysed.
# In similar studies in HeLaS3 cells, the same vector was transfected with liposomes comprising bromide counter ions and the cytofectin, 10-2-10 Ethandiyl-1,2-bis(decyl dimethylammonium).
# Huh7 cells = conditions: Huh7, liposome with DOPE, 0.5 μg pCMVβ
# Protocol: The resulting liposomes were used to transfect Huh7 cells in vitro with the reporter plasmid pCMVβ (Clontech). Transfection efficiencies, as obtained by OD measurements after cell-lysis and β-Gal activity assay, were compared to efficiencies obtained in parallel with a commercially available liposome-preparation (Lipofectamine, Gibco LTI) and given as percentage of Lipofectamine efficiency. For each transfection, 0.5 μg of pCMVβ (isolated with EndoFree, QIAGEN) was used per well of a 96 well plate. The DNA was diluted to 50 μl with DMEM medium (Gibco LTI) and combined with 1, 2, 3 and 4 μl of the liposome preparations subsequently diluted to 50 μl with DMEM medium. DNA and liposome solutions were mixed and applied to the cells for 6 hours at 37° C., 5% CO2. Afterwards, medium was changed to DMEM containing 10% fetal calf serum. Cells were lysed after 48 h incubation at 37° C., 5% CO2. Twofold determinations each were performed. The values were averaged and the highest efficiency (optimum) within a row was given as percentage value of the highest efficiency (optimum) obtained with Lipofectamine.
# [3] = X(DOPE) 0.5, without sonication
# [4] = X(DOPE) 0.6, without sonication
# [5] = X(DOPE) 0.7, without sonication
# [6] = X(DOPE) 0.8, without sonication
# [7] = X(DOPE) 0.50, without sonication
# [8] = X(DOPE) 0.60, without sonication
# [9] = X(DOPE) 0.70, without sonication
# [10] = X(DOPE) 0.80, without sonication
Compound,Results HeLaS3 (%) (optimal transfection efficiency as percentage of the highest efficiency obtained by Lipofectamine) (HeLaS3 cells [1]; [3]),Results HeLaS3 (%) (optimal transfection efficiency as percentage of the highest efficiency obtained by Lipofectamine) (HeLaS3 cells [1]; [4]),Results HeLaS3 (%) (optimal transfection efficiency as percentage of the highest efficiency obtained by Lipofectamine) (HeLaS3 cells [1]; [5]),Results HeLaS3 (%) (optimal transfection efficiency as percentage of the highest efficiency obtained by Lipofectamine) (HeLaS3 cells [1]; [6]),Results COS7 (%) (optimal transfection efficiency as percentage of the highest efficiency obtained by Lipofectamine) (COS7 cells; [3]),Results COS7 (%) (optimal transfection efficiency as percentage of the highest efficiency obtained by Lipofectamine) (COS7 cells; [4]),Results COS7 (%) (optimal transfection efficiency as percentage of the highest efficiency obtained by Lipofectamine) (COS7 cells; [5]),Results COS7 (%) (optimal transfection efficiency as percentage of the highest efficiency obtained by Lipofectamine) (COS7 cells; [6]),Results (%) (optimal transfection efficiency as percentage of the highest efficiency obtained by Lipofectamine) (HeLaS3 cells [2]; [7]),Results (%) (optimal transfection efficiency as percentage of the highest efficiency obtained by Lipofectamine) (HeLaS3 cells [2]; [8]),Results (%) (optimal transfection efficiency as percentage of the highest efficiency obtained by Lipofectamine) (HeLaS3 cells [2]; [9]),Results (%) (optimal transfection efficiency as percentage of the highest efficiency obtained by Lipofectamine) (HeLaS3 cells [2]; [10]),other results
"CCCCCCCCCCCCCC[N+](C)(C)CC[N+](C)(CCCCCCCCCCCCCC)CC[N+](C)(C)CCCCCCCCCCCCCC.[Br-].[Br-].[Br-] [R = 14, N,N′,N″-tritetradecyl-N,N,N′,N″,N″-pentamethyl-bis-(2-ammonioethyl) ammoniumbromide]",7,7,9,35,8,9,12,58,–,–,–,–,–
"CCCCCCCCCCCC[N+](C)(C)CC[N+](C)(CCCCCCCCCCCC)CC[N+](C)(C)CCCCCCCCCCCC.[Br-].[Br-].[Br-] [R = 12, N,N′,N″-tridodecyl-N,N,N′,N″,N″-pentamethyl-bis-(2-ammonioethyl)-ammoniumbromide]",0,9,17,63,3,5,8,29,–,–,–,–,–
"CCCCCCCCCC[N+](C)(C)CC[N+](C)(C)CCCCCCCCCC.O=C([O-])C(=O)[O-] [oxalate, Ethanediyl-1,2-bis(decyldimethylammonium) oxalate]",–,–,–,–,–,–,–,–,275%,0%,0,0,–
"Ethanediyl-1,2-bis(decyl dimethylammonium) iodide",–,–,–,–,–,–,–,–,> 3230* %,> 3230* %,686,457,ranking of transfection efficiency among the counter ions (in words) (HeLaS3 cells [2]): highest transfection efficiencies; transfection efficiency compared with Lipofectamine (in words) (HeLaS3 cells [2]): higher transfection efficiency values than transfections with Lipofectamine
"CCCCCCCCCCCCCCCCCC[N+](C)(C)CC[N+](C)(CCCCCCCCCCCCCCCCCC)CC[N+](C)(C)CCCCCCCCCCCCCCCCCC.[Br-].[Br-].[Br-] [R = 18, N,N′,N″-trioctadcyl-N,N,N′,N″,N″-pentamethyl-bis-(2-ammonioethyl)-ammoniumbromide]",65,61,80,61,20,34,79,93,–,–,–,–,–
"Ethanediyl-1,2-bis(octadecyl dimethylammonium bromide) [18-2-18]",–,–,–,–,–,–,–,–,–,–,–,–,Result (%) (transfection efficiency as percentage of Lipofectamine efficiency) (Huh7 cells; [7]): 82%; Result (%) (transfection efficiency as percentage of Lipofectamine efficiency) (Huh7 cells; [8]): 68%; Result (%) (transfection efficiency as percentage of Lipofectamine efficiency) (Huh7 cells; [9]): 105%; Result (%) (transfection efficiency as percentage of Lipofectamine efficiency) (Huh7 cells; [10]): 115%
"Ethanediyl-1,2-bis(dodecyl dimethylammonium bromide) [12-2-12]",–,–,–,–,–,–,–,–,–,–,–,–,Result (%) (transfection efficiency as percentage of Lipofectamine efficiency) (Huh7 cells; [7]): 70%; Result (%) (transfection efficiency as percentage of Lipofectamine efficiency) (Huh7 cells; [8]): 127%; Result (%) (transfection efficiency as percentage of Lipofectamine efficiency) (Huh7 cells; [9]): 138%; Result (%) (transfection efficiency as percentage of Lipofectamine efficiency) (Huh7 cells; [10]): 89%
"CCCCCCCCCCCCCCCC[N+](C)(C)CC[N+](C)(CCCCCCCCCCCCCCCC)CC[N+](C)(C)CCCCCCCCCCCCCCCC.[Br-].[Br-].[Br-] [R = 16, N,N′,N″-trihexadecyl-N,N,N′,N″,N″-pentamethyl-bis-(2-ammonioethyl)-ammoniumbromide]",31,39,70,75,18,16,44,38,–,–,–,–,–
"CCCCCCCCCC[N+](C)(C)CC[N+](C)(CCCCCCCCCC)CC[N+](C)(C)CCCCCCCCCC.[Br-].[Br-].[Br-] [R = 10, N,N′,N″-tridecyl-N,N,N′,N″,N″-pentamethyl-bis-(2-ammonioethyl)-ammoniumbromide]",231,222,52,47,11,9,16,20,–,–,–,–,–
"CCCCCCCCCC[N+](C)(C)CC[N+](C)(C)CCCCCCCCCC.O=S(=O)([O-])[O-] [sulfate, ethanediyl-1,2-bis(dimethyldecylammonium sulfate)]",–,–,–,–,–,–,–,–,879%,927%,265,1201,transfection efficiency compared with Lipofectamine (in words) (HeLaS3 cells [2]): higher transfection efficiency values than transfections with Lipofectamine
"Ethanediyl-1,2-bis(decyl dimethylammonium) thiosulfate",–,–,–,–,–,–,–,–,1552%,1915%,605,844,transfection efficiency compared with Lipofectamine (in words) (HeLaS3 cells [2]): higher transfection efficiency values than transfections with Lipofectamine
"Ethanediyl-1,2-bis(tetradecyl dimethylammonium bromide) [14-2-14]",–,–,–,–,–,–,–,–,–,–,–,–,Result (%) (transfection efficiency as percentage of Lipofectamine efficiency) (Huh7 cells; [7]): 48%; Result (%) (transfection efficiency as percentage of Lipofectamine efficiency) (Huh7 cells; [8]): 74%; Result (%) (transfection efficiency as percentage of Lipofectamine efficiency) (Huh7 cells; [9]): 98%; Result (%) (transfection efficiency as percentage of Lipofectamine efficiency) (Huh7 cells; [10]): 157%
"CCCCCCCCCC[N+](C)(C)CC[N+](C)(C)CCCCCCCCCC.O=P([O-])(O)O.O=P([O-])(O)O [dihydrogenphosphate, Ethanediyl-1,2-bis(decyldimethylammonium) dihydrogenphosphate]",–,–,–,–,–,–,–,–,1966%,> 3230* %,580,615,ranking of transfection efficiency among the counter ions (in words) (HeLaS3 cells [2]): highest transfection efficiencies; transfection efficiency compared with Lipofectamine (in words) (HeLaS3 cells [2]): higher transfection efficiency values than transfections with Lipofectamine
"Ethanediyl-1,2-bis(hexadecyl dimethylammonium bromide) [16-2-16]",–,–,–,–,–,–,–,–,–,–,–,–,Result (%) (transfection efficiency as percentage of Lipofectamine efficiency) (Huh7 cells; [7]): 104%; Result (%) (transfection efficiency as percentage of Lipofectamine efficiency) (Huh7 cells; [8]): 124%; Result (%) (transfection efficiency as percentage of Lipofectamine efficiency) (Huh7 cells; [9]): 126%; Result (%) (transfection efficiency as percentage of Lipofectamine efficiency) (Huh7 cells; [10]): 169%
